Data from patent US8450280B2, “Activation of peptide prodrugs by hK2” (GenbSpera, Inc., priority 1999, dated 2013).
Like-named read-outs stand apart in the source and are kept apart here. Values belong to the compound of their own block, whether it stands above or below them. Non-standard residues stand in square brackets, D forms with d. Residues, ends and D or L forms follow the SMILES beside them. *: point of attachment. AMC = Cc1cc(=O)oc2cc(N*)ccc12; Tos = Cc1ccc(S(=O)(=O)*)cc1; Cbz = O=C(OCc1ccccc1)*; Boc = CC(C)(C)OC(=O)*

What was measured:
hK2 [1] = molecular target: T1, hK2 (Homo sapiens, UniProt P20151); assay: Kinetic constants of AMC substrate hydrolysis by hK2; assay type: biochemical; design: key to Kcat: The entry “NR” means that no reaction was detected; conditions: for Kcat: 50 mM Tris pH 7.5, 0.1 M NaCl, 0.2% BSA, 37° C., Lineweaver-Burk, NR = no reaction detected; for Activity (%): hydrolytic activity of hK2 in relation to H-Pro-Phe-Arg-AMC: 100 μM substrate
T1 construct: made in house
T1 sequence (P20151 25-261): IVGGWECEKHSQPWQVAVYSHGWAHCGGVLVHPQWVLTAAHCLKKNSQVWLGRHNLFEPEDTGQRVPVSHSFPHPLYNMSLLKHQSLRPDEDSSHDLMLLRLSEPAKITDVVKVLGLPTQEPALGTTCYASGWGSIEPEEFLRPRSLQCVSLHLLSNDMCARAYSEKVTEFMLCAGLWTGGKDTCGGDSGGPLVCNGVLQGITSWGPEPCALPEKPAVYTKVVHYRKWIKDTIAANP
Experimental: The measurements were done with Fluoroscan II (Labsystems, Helsinki, Finland) using a 355 nm excitation filter and a 460 nm emission filter. The fluorescence of 7-amino-4-methylcoumarin (AMC) (Sigma, St. Louis, Mo., USA) was determined to be 700 FIU/nmol and this value was used in the calculations of the rate of product formation. Unless otherwise indicated all final analyses were performed in 200 μl of the buffer 50 mM Tris pH 7.5, 0.1 M NaCl, and 0.2% BSA at 37° C. using 1.6 pmol hK2. BSA was added to the reaction mixture in order to minimize adsorption of the enzyme to the walls of the microtiter wells. The amount of hK2 was quantified by a commercial PSA immunoassay (Prostatus, Wallac, Turku, Finland) with the Mabs H1 17 and H50 which recognize PSA and hK2 equally well (Lovgren et al., Biochem. Biophys. Res. Co., 213, 888-895 (1995)). Under the conditions described, 1.6 pmol of the hK2 preparation cleaved 50 pmol/min of the 100 μM substrate Pro-Phe-Arg-AMC (SEQ ID NO: 55). During the 20 minute measurement time the consumption of the substrates is <7% of their total amount and was not considered to affect the reaction rate. Initial analysis of the substrates were performed with 3.2 pmol hK2 at a substrate concentration of 250 μM. Km value for the substrates cleaved by hK2 at these conditions were determined using at least four substrate concentrations ranging from 0.2×Km to 5×Km. The Km and kcat values were calculated from Lineweaver-Burk plots.
Substrates ending in either arginine or lysine were tested. […] However, no hydrolysis of Arg-Gln-Arg-Arg-AMC (SEQ ID NO: 63) was detected. […] As with the semenogelins, hK2 also here cleaves substrates with Arg at position P1 and preferentially a large residue or another Arg at position P2. None of the substrates with lysine in the C-terminal position were cleaved.
The activity listed in Table 1 is hydrolytic activity of hK2 with 100 μM substrate in relation to the hydrolytic activity of hK2 with 100 μM of the tissue kallikrein substrate H-Pro-Phe-Arg-AMC (SEQ ID NO: 55). The entry “NR” means that no reaction was detected.

hK2 [2] = molecular target: T1, hK2; assay: Effect of heparin on hK2 activity (Km and kcat of substrate); assay type: biochemical; conditions: heparin 10^−4 to 10^−7 M; data not shown
From the text: The increase had no significant effect on the calculation of the constants.

hK2 [3] = molecular target: T1, hK2; assay: Inhibition of hK2 by protease inhibitors (substrate H-Pro-Phe-Arg-AMC); assay type: biochemical
Experimental: Activity of hK2 (1.6 pmol) was monitored using the substrate H-Pro-Phe-Arg-AMC (SEQ ID NO: 55) (90 μM). Inhibitors, at commonly used concentrations, and hK2 (8.3 nM) were mixed and proteolysis of 90 μM H-Pro-Phe-Arg-AMC (SEQ ID NO: 55) was followed up to 20 minutes, starting directly or 10 minutes after mixing the enzyme with various inhibitors. Inhibition was evaluated by comparison with […] controls.
The proteolytic activity is expressed in percentage of inhibitor-free control after 10 minutes of incubation.
Therefore, PPACK can be used to obtain fast irreversible inhibition of hK2.

hK2 [4] = molecular target: T1, hK2; assay: Kinetic analysis of hK2 inhibition by zinc; assay type: biochemical; conditions: for Ki: two bound zinc ions model, best fit, substrates Pro-Phe-Arg-AMC and Ala-Arg-Arg-AMC, no BSA
Experimental: Since BSA contains several binding sites for Zn^2+, it could not be used in the kinetics buffer during zinc inhibition experiments. The binding of hK2 to the microtiter well walls caused a constant decrease in the reaction rate, which was however similar to all zinc concentrations. The velocities were calculated from a five-minute measurement time after mixing of the enzymes with the buffer containing substrate and zinc.
The inhibition of hK2 by zinc was first tested against competitive, uncompetitive, mixed, non-competitive, and partial non-competitive inhibitor models using commonly used formulas described for the respective inhibition models. […] The Dixon plots ([Zn^2+]/v) for the inhibition were not linear. However, at low zinc ion concentrations the inhibition pattern looked competitive. The inhibition mechanism is clearly more complex than the ones described by the formulas used. Further analysis of the inhibition mechanism was done by deriving the rate equations for various more complex mechanisms and analyzing the data by least-squares best-fit systems. The possible mechanism required two bound zinc ions, and is presented by Scheme 1.
[formula] where the concentration of free enzyme e is the total enzyme concentration divided by the sum of a) {(the zinc concentration divided by Ki1) times (the zinc concentration divided by Ki2)} and b) {(the zinc concentration divided by Ki1) plus 1} times {(the substrate concentration divided by Ks) plus 1}.
The equation fitted the experimental data quite satisfactorily. The constant values were Ki1=4.6+/−3.9 μM, Ki2=3.2+/−0.7 μM, and k=k′.

[5] = molecular target: sarcoplasmic reticulum (SR) and endoplasmic reticulum (ER) Ca^2+-ATPase (SERCA) pump; conditions: read-out: apparent dissociation constant; cited from earlier work

Compound: Cc1cc(=O)oc2cc(NC(=O)[C@H](CCCNC(=N)N)NC(=O)[C@H](CCCNC(=N)N)NC(=O)[C@H](CCC(N)=O)NC(=O)[C@@H](N)CCCNC(=N)N)ccc12 [Arg Gln Arg Arg-AMC, H-Arg-Gln-Arg-Arg-AMC] (H-RQRR-{AMC})
hydrolysis by hK2 (in words) (hK2 [1]): no hydrolysis | Kcat (hK2 [1]): NR

hydrolysis by hK2 (in words) (hK2 [1]): cleaved quite effectively | Activity (%): hydrolytic activity of hK2 in relation to H-Pro-Phe-Arg-AMC (hK2 [1]): 33%
Compound: Cc1cc(=O)oc2cc(NC(=O)[C@H](CCCNC(=N)N)NC(=O)[C@H](CCCNC(=N)N)NC(=O)[C@H](C)NC(=O)OCc3ccccc3)ccc12 [Ala Arg Arg-AMC, Z-Ala-Arg-Arg-AMC] (Cbz-Ala-Arg-Arg-{AMC})

hydrolysis by hK2 (in words) (hK2 [1]): best substrate | rate of substrate cleavage by hK2 preparation (hK2 [1]; 1.6 pmol hK2, 100 μM substrate, pH 7.5, 37° C.): 50 pmol/min | Activity (%): hydrolytic activity of hK2 in relation to H-Pro-Phe-Arg-AMC (hK2 [1]): 100%
Compound: Cc1cc(=O)oc2cc(NC(=O)[C@H](CCCNC(=N)N)NC(=O)[C@H](Cc3ccccc3)NC(=O)[C@@H]3CCCN3)ccc12 [Pro Phe Arg-AMC, H-Pro-Phe-Arg-AMC] (H-Pro-Phe-Arg-{AMC})

hydrolysis by hK2 (in words) (hK2 [1]): with lower efficiency | Activity (%): hydrolytic activity of hK2 in relation to H-Pro-Phe-Arg-AMC (hK2 [1]): 6%
Compound: Cc1cc(=O)oc2cc(NC(=O)[C@H](CCCNC(=N)N)NC(=O)[C@@H]3CCCN3C(=O)[C@@H](NC(=O)OC(C)(C)C)C(C)C)ccc12 [Val Pro Arg-AMC, boc-Val-Pro-Arg-AMC] (Boc-Val-Pro-Arg-{AMC})

Compound: Cc1cc(=O)oc2cc(NC(=O)[C@H](CCCCN)NC(=O)[C@H](CC(C)C)NC(=O)[C@H](N)C(C)C)ccc12 [Val Leu Lys-AMC, H-D-Val-Leu-Lys-AMC] (H-[dV]-Leu-Lys-{AMC})
Kcat (hK2 [1]): NR

Compound: Cc1cc(=O)oc2cc(NC(=O)[C@H](CCCNC(=N)N)NC(=O)[C@H](CO)NC(=O)[C@H](Cc3ccccc3)NC(=O)OC(C)(C)C)ccc12 [Phe Ser Arg-AMC, Boc-Phe-Ser-Arg-AMC] (Boc-Phe-Ser-Arg-{AMC})
Kcat (hK2 [1]): NR

Compound: Cc1cc(=O)oc2cc(NC(=O)[C@H](CCCNC(=N)N)NC(=O)[C@@H](NC(=O)[C@@H](NC(=O)OCc3ccccc3)C(C)C)C(C)C)ccc12 [Val Val Arg-AMC, Z-Val-Val-Arg-AMC] (Cbz-Val-Val-Arg-{AMC})
Kcat (hK2 [1]): NR

Compound: heparin
effect on Km of the substrate (hK2 [2]): slightly increased

Compound: [Cl-].[Cl-].[Zn+2] [ZnCl2]
inhibition of hK2 (in words) (hK2 [3]; 8 nM hK2, 90 μM substrate): effectively inhibits hK2 | Activity (%) of hK2, percentage of inhibitor-free control (hK2 [3]; inhibitor 100 μM, 10 minutes of incubation, 8.3 nM hK2, 90 μM substrate): 10% | Activity (%) of hK2, percentage of inhibitor-free control (hK2 [3]; inhibitor 200 μM, 10 minutes of incubation, 8.3 nM hK2, 90 μM substrate): 1.2% | effect on Km and Vmax of hK2 (hK2 [4]): increased the Km and decreased the Vmax | reversal of hK2 inhibition by addition of EDTA (hK2 [4]): totally reversed | Ki (hK2 [4]; read-out: Ki1): 4.6 µM | Ki (hK2 [4]; read-out: Ki2): 3.2 µM

Kcat (hK2 [1]): NR
Compound: Cc1cc(=O)oc2cc(NC(=O)[C@H](CCCNC(=N)N)NC(=O)CNC(=O)[C@H](CCC(N)=O)NC(=O)OC(C)(C)C)ccc12 [Gln Gly Arg-AMC, Boc-Gln-Gly-Arg-AMC] (Boc-Gln-Gly-Arg-{AMC})

Compound: C/C=C(/C)C(=O)O[C@H]1C(C)=C2[C@H]([C@@H]1OC(=O)CCCCCCC)[C@@](C)(OC(C)=O)C[C@H](OC(=O)CCC)[C@@]1(O)[C@H]2OC(=O)[C@@]1(C)O [TG, Thapsigargin]
Kd [5]: ≤ 2.2 pM

Kcat (hK2 [1]): NR
Compound: Cc1ccc(S(=O)(=O)NCC(=O)N2CCC[C@H]2C(=O)N[C@@H](CCCNC(=N)N)C(=O)Nc2ccc3c(C)cc(=O)oc3c2)cc1 [Gly Pro Arg-AMC, Tos-Gly-Pro-Arg-AMC] (Tos-Gly-Pro-Arg-{AMC})

Compound: Cc1ccc(S(=O)(=O)NCC(=O)N2CCC[C@H]2C(=O)N[C@@H](CCCCN)C(=O)Nc2ccc3c(C)cc(=O)oc3c2)cc1 [Gly Pro Lys-AMC, Tos-Gly-Pro-Lys-AMC] (Tos-Gly-Pro-Lys-{AMC})
Kcat (hK2 [1]): NR

Compound: Cl.N=C(N)c1ccccc1 [Benzamidine, Benzamidine hydrochloride]
concentration required for efficient inhibition of hK2 (hK2 [3]): above 20 mM | remaining activity at 5000 µM (hK2 [3]; inhibitor 5000 μM, 10 minutes of incubation, 8.3 nM hK2, 90 μM substrate, read-out: Activity (%) of hK2, percentage of inhibitor-free control): 27% | remaining activity at 20000 µM (hK2 [3]; inhibitor 20,000 μM, 10 minutes of incubation, 8.3 nM hK2, 90 μM substrate, read-out: Activity (%) of hK2, percentage of inhibitor-free control): 8%

Compound: NC(N)=NCCC[C@H](NC(=O)[C@@H]1CCCN1C(=O)[C@H](N)Cc1ccccc1)C(=O)CCl [PPACK]
inhibition of hK2 (in words) (hK2 [3]; 5 μM concentration, irreversible): inhibited hK2 rapidly | Activity (%) of hK2, percentage of inhibitor-free control (hK2 [3]; inhibitor 5 μM, 10 minutes of incubation, 8.3 nM hK2, 90 μM substrate): 0%

hydrolysis by hK2 (in words) (hK2 [1]): with lower efficiency | Activity (%): hydrolytic activity of hK2 in relation to H-Pro-Phe-Arg-AMC (hK2 [1]): 7%
Compound: Cc1cc(=O)oc2cc(NC(=O)[C@H](CCCNC(=N)N)NC(=O)[C@H](CC(C)C)NC(=O)[C@H](CC(C)C)NC(=O)OCc3ccccc3)ccc12 [Leu Leu Arg-AMC, Z-Leu-Leu-Arg-AMC]
